Data from patent US6528675B1, “Cyanohydrin ethers and esters as high-sensitivity enzyme substrates” (The Regents of the University of California, priority 2001, dated 2003).

Columns and labels:
[1] = Change in optical properties, UV absorption of esters and hydrolysis products; format: physicochemical; details: for ε (molar absorptivity): in M-1 cm-1 (unit assumed)
Description: The substrates representing the invention were (R/S)-acetic acid cyano-(6-methoxynaphthalen-2-yl)-methyl ester (the title compound of Synthesis Example 1 above) and (trans/cis)-3-(2,2-dichlorovinyl)-2,2-dimethylcyclopropanecarboxylic acid cyano-(6-methoxynaphthalen-2-yl)-methyl ester (the title compound of Synthesis Example 2 above).

[2] = Substrate stability in buffer, fluorescence detection; format: physicochemical; details: 5 min, 10 μM
Experimental: (§1) The same two invention substrates and two prior art substrates were tested for stability by both UV detection and fluorescence detection under typical assay conditions.
(§2) Tris maleate buffers (0.1 M) at pH ranging from 6.0 to 9.0 in intervals of 1.0 were used, and substrate was added to 10 μM final concentration. […] The fluorescence samples were read with excitation at 360 nm and emission at 460 nm (for pH 6.0), 465 nm (for pH 7.0), 485 nm (pH 8.0), and 510 nm (pH 9.0) for the methylumbelyl acetate, and with excitation at 330 nm and emission at 460 nm for the two test compounds, in all cases, the readings over 5-minute periods.

porcine esterase [3] = test: Sensitivity of substrate to enzyme strength; format: biochemical; details: pH 8.0, 10 μM substrate, 1 unit=1 μmol/min/mL
Experimental: This example illustrates the sensitivity of the substrate to the enzyme, and compares a substrate in accordance with the present invention to two prior art substrates. […] The enzyme was porcine esterase.
A tris-maleate buffer at pH 8.0 (0.1 M) was used. The procedure consisted of adding substrate to a test tube containing 3 mL of buffer to a final substrate concentration of 10 μM, then adding porcine esterase at strengths of 0.06, 0.09. 0.12, 0.18, 0.30, 0.60, 0.9 and 1.2 unit, in which 1 unit=1 μmol/min/mL. […] The enzyme sensitivities for each substrate and detection method were defined as the minimal amount of enzyme per mL required to produce a signal from the substrate that was at least three times greater than the background noise.

[4] = Change in optical properties, fluorescence of esters and hydrolysis products; format: physicochemical
Description: The substrates representing the invention were (R/S)-acetic acid cyano-(6-methoxynaphthalen-2-yl)-methyl ester (the title compound of Synthesis Example 1 above) and (trans/cis)-3-(2,2-dichlorovinyl)-2,2-dimethylcyclopropanecarboxylic acid cyano-(6-methoxynaphthalen-2-yl)-methyl ester (the title compound of Synthesis Example 2 above). The substrates of the prior art were methylumbelyl acetate (for detection by fluorescence emission) and 2-naphthacetate (for detection by UV absorption) in assay solutions with different pH values. These prior art substrates were selected because both are widely used and both have aromatic systems similar to the two test compounds.
Again using tris-maleate at pH levels of 6.5, 7.5, and 8.5, fluorescence studies were performed at concentrations of 10 μM, and fluorescence of the starting esters and the hydrolysis products (hydroxycoumarin in the case of methylumbelyl acetate and 6-methoxy-naphthaldehyde in the case of the Example 1 substrate) were determined by conventional instrumentation. The results are listed in Table III in which “MUA” denotes methylumbelyl acetate, “Compound I” denotes the Example 1 substrate, “Ex” denotes the optimal excitation wavelength in nm, “Emmax” denotes the maximal emission wavelength in nm, and “RFU” denotes the relative fluorescence units multiplied by 1,000.

[5] = test system: esterase from a rat liver microsomal preparation; test: Specific activity of esterase against substrates; format: biochemical, Fisher 344 rats; details: Rat liver microsome, pH 8.0, 10 μM substrate, fluorescence 330/460 nm
Experimental: (§3) The esterases were porcine esterase purchased from Sigma Chemical Company, St. Louis, Mo., USA, esterase from a rat liver microsomal preparation from 8-week-old Fisher 344 rats, and homogenates of Heliothis virescens from both pyrethroid-susceptible and -resistant strains of tobacco budworm. The substrate in each case was added to a tris-maleate buffer (pH 8.0, 0.1 m) to a final substrate concentration of 10 μM, followed by the addition of the enzyme preparation. The samples were then immediately read by fluorometer at 460 nm for one minute (excitation at 330 nm). The results are listed in Table VI, where “Compound I” denotes the Example 1 substrate, and “Compound II” denotes the Example 4 substrate.

[6] = test system: homogenate of Heliothis virescens, pyrethroid-resistant strain; test: Specific activity of esterase against substrates; format: biochemical; details: H. virescens (resistant), pH 8.0, 10 μM substrate, fluorescence 330/460 nm
Experimental: as §3

porcine esterase [7] = test: Specific activity of esterase against substrates; format: biochemical; details: pH 8.0, 10 μM substrate, fluorescence 330/460 nm
Experimental: as §3

[8] = test system: homogenate of Heliothis virescens, pyrethroid-susceptible strain; test: Specific activity of esterase against substrates; format: biochemical; details: H. virescens (susceptible), pH 8.0, 10 μM substrate, fluorescence 330/460 nm
Experimental: as §3

[9] = Substrate stability in buffer, UV detection; format: physicochemical; details: 5 min, 10 μM
Experimental: as §1, §2

[10] = Rate of conversion of cyanohydrin to aldehyde as a function of pH; format: physicochemical; details: pH 8.0 or greater, tris-maleate 0.1 M, 25° C.
Experimental: This example illustrates the rate of conversion of a cyanohydrin formed in the practice of this invention to its corresponding aldehyde. The cyanohydrin used in this example is hydroxy-(6-methoxynaphthalen-2-yl) acetonitrile, which is the cyanohydrin formed by the action of an esterase on the substrate of Example 1.
The rate of cyanohydrin-to-aldehyde conversion was determined as a function of pH at constant ionic strength (0.1 M) and temperature (25° C.), using a series of tris-maleate buffers with different pH values ranging from 6.0 to 9.0 at intervals of 0.5. Conversion was initiated by the addition of 3 μL of 10 mM of cyanohydrin, and the formation of 6-methoxy-2-naphthaldehyde, measured in pmol cyanohydrin converted per second per mL, was detected by fluorescence excitation at 330 nm and emission at 460 nm over a time period of 20 minutes. […] The rate of aldehyde conversion increases rapidly at pH 8.0 or greater with maximum fluorescence achieved in less than 20 seconds.

Compound: COc1ccc2cc(C(C#N)OC(C)=O)ccc2c1 (racemic) [Compound I, (R/S)-Acetic Acid Cyano-(6-methoxy-naphthalen-2-yl) Methyl Ester]
- OD (optical density) ([1]; tris-maleate pH 6.5, 10 μM): 0.086
- λmax ([1]; tris-maleate pH 6.5, 10 μM): 287 nm
- ε (molar absorptivity) ([1]; tris-maleate pH 6.5, 10 μM): 3,000
- OD (optical density) ([1]; tris-maleate pH 7.5, 10 μM): 0.137
- λmax ([1]; tris-maleate pH 7.5, 10 μM): 287 nm
- ε (molar absorptivity) ([1]; tris-maleate pH 7.5, 10 μM): 3,420
- OD (optical density) ([1]; tris-maleate pH 8.5, 10 μM): 0.142
- λmax ([1]; tris-maleate pH 8.5, 10 μM): 287 nm
- ε (molar absorptivity) ([1]; tris-maleate pH 8.5, 10 μM): 3,550
- melting point: 84 to 85 °C
- Substrate stability, Fluorescence ([2]; pH 6): <1 pmol/min
- Substrate stability, Fluorescence ([2]; pH 7): 8 pmol/min
- Substrate stability, Fluorescence ([2]; pH 8): 59 pmol/min
- Substrate stability, Fluorescence ([2]; pH 9): 138 pmol/min
- Sensitivity (minimal amount of enzyme per mL giving a signal at least three times background noise) (porcine esterase [3]; Fluorescence detection): 0.00002
- Sensitivity (minimal amount of enzyme per mL giving a signal at least three times background noise) (porcine esterase [3]; UV detection): 0.001
- emission peak ([4]; over the three pH levels tested (6.5, 7.5, 8.5)): 366 nm
- Emmax (maximal emission wavelength) ([4]; tris-maleate pH 6.5, 10 μM): 410 nm
- Ex (optimal excitation wavelength) ([4]; tris-maleate pH 6.5, 10 μM): 360 nm
- RFU (relative fluorescence units multiplied by 1,000) ([4]; tris-maleate pH 6.5, 10 μM): 241 RFU
- Emmax (maximal emission wavelength) ([4]; tris-maleate pH 7.5, 10 μM): 450 nm
- Ex (optimal excitation wavelength) ([4]; tris-maleate pH 7.5, 10 μM): 360 nm
- RFU (relative fluorescence units multiplied by 1,000) ([4]; tris-maleate pH 7.5, 10 μM): 581 RFU
- Emmax (maximal emission wavelength) ([4]; tris-maleate pH 8.5, 10 μM): 450 nm
- Ex (optimal excitation wavelength) ([4]; tris-maleate pH 8.5, 10 μM): 360 nm
- RFU (relative fluorescence units multiplied by 1,000) ([4]; tris-maleate pH 8.5, 10 μM): 3,708 RFU
- Specific Activity [5]: 39,800 ± 600 pmol/min/mg protein
- Specific Activity [6]: 25,100 ± 425 pmol/min/mg protein
- Specific Activity (porcine esterase [7]): 2,911,000 ± 1,780 pmol/min/mg protein
- Specific Activity [8]: 9,700 ± 220 pmol/min/mg protein
- Substrate stability, UV Absorption ([9]; pH 6): <0.01 mAbs/min
- Substrate stability, UV Absorption ([9]; pH 7): <0.01 mAbs/min
- Substrate stability, UV Absorption ([9]; pH 8): <0.01 mAbs/min
- Substrate stability, UV Absorption ([9]; pH 9): 0.103 mAbs/min

Compound: COc1ccc2cc(C(O)C#N)ccc2c1 (centres unmarked) [cyanohydrin, hydroxy-(6-methoxynaphthalen-2-yl) acetonitrile]
- time to maximum fluorescence (cyanohydrin-to-aldehyde conversion) [10]: less than 20 seconds
